Consider five compounds from patent US8067422B2, “Crystal form of phenylamino pyrimidine derivatives” (Natco Pharma Limited, priority 2008, dated 2011).

Series [1] in a line: Thermodynamic stability of crystal forms at room temperature. The format is physicochemical. The source says: This is indicative of the greater stability of the Form-III crystal form.
A short description of series [2]: Heat stability of Form-III crystal form (XRPD after heating). As to conditions: for Polymorph form detected after heating: 6 hours, XRPD. The format is physicochemical. The source says:
Pure Form-III crystal form (1 gm) prepared by the present process was placed in a boiling tube and heated gradually in oil bath. Then the substance was examined by XRPD.

A short description of series [3]: Stability of Form-III crystal form under accelerated stress conditions in bulk and formulated capsule. In kind it is physicochemical.
The test system of the next series is ZR71 breast cancer cells. The series is described as follows: Matrigel invasion assay (modified Boyden chamber), ZR-71. In kind it is cell-based. The protocol:
(§1) The in vitro invasiveness of 4910, 5310 and U87 glioma cells and MDAMB231 and ZR71 breast cancer cells in the presence of specified concentrations of compounds were assessed using a modified Boyden chamber assay. Cells were treated with these compounds for 48 h. 1×10^6 cells were suspended in 600 μl of serum-free medium supplemented with 0.2% BSA and placed in the upper compartment of the transwell chambers (Corning Costar Fischer Scientific Cat #07-200-158, Pittsburgh Pa.) coated with Matrigel (0.7 mg/ml). The lower compartment of the chamber was filled with 200 μl of serum medium and the cells were allowed to migrate for 24 h. After incubation, the cells were fixed and stained with Hema-3 and quantified as previously described (Mohanam et al. 1993). The migrated cells were imaged microscopically to determine the reduction in invasiveness induced by the compounds of this invention.

A further series concerns U87 glioma cells. The series is described as follows: Matrigel invasion assay (modified Boyden chamber), U87. In kind it is cell-based. The protocol:
as §1

In series [4] the test system is MDAMB231 breast cancer cells. The experiment in a line: Matrigel invasion assay (modified Boyden chamber), MDA-MB-231. In kind it is cell-based. The protocol: as §1
Series [5] relates to 4910 human glioma xenograft cells. The series is described as follows: Glioma radiation study, nude mice intracranially implanted with 4910 cells. The format is in vivo. As to conditions: of 10 animals; without radiation; day 40 post implantation. The protocol: Nude mice were intracranially implanted with 4910 human glioma xenograft cells (1×10^6 cells). Ten days after implantation mice were treated with AN019, AN024 or temozolomide with or without radiation (5 Gy/week). The experiment was terminated at day 40 post implantation.

A further series concerns 5310 glioma cells. The series is described as follows: Matrigel invasion assay (modified Boyden chamber), 5310. The format is cell-based. The protocol:
as §1

The test system of a further series is 4910 glioma cells. The series is described as follows: Matrigel invasion assay (modified Boyden chamber), 4910. The format is cell-based, human. The protocol: as §1
In series [6] the test system is K562 cells. The series is described as follows: Anti-CML activity in nude mice implanted with K562 cells (leukemia growth index). In kind it is in vivo. To be noted: ip injections. The source says: Nude mice (nu/nu) were implanted with K562 cells (1×10^6) via tail vein.
Blood was drawn via the tail vein. Quantitative analysis of LGI was graphically represented.

Series [7] concerns K562 cells. The experiment in a line: Spleenic enlargement and spleen Crk immunocytochemistry in K562 implanted nude mice. In kind it is in vivo. To be noted: ip injections. The protocol:
Control mice were sacrificed on day 42 when secondary leukemia symptoms were observed, such as abdominal swelling and lack of circulation in the peripherals causing loss of digits with red spots under the skin surface. Spleen and any secondary tumors were harvested, fixed in formaldehyde and paraffin embedded as per standard protocols. Paraffin section were obtained and processed for immunocytochemistry. The rehydrated sections were treated with 0.3% H2O2 to inactivate any native peroxidases prior to immuno-probing. The sections were blocked with filter sterilized (0.22 μm) 1% BSA-PBS at room temperature for 1 h. Following blocking, the sections were immuno-probed with a human specific anti-Crk monoclonal primary antibody raised in rabbit against a synthetic peptide corresponding to residues in the SH2 domain, near the N-term of human CrkL protein (Abcam, Cambridge, Mass., USA) in 1% BSA-PBS overnight. Secondary antibody (anti-rabbit) conjugated to HRP was used to detect the presence of primary antibody. The sections were briefly rinsed three times in PBS solution after immuno-probing with secondary antibody, and DAB HRP substrate was added per manufacture's instructions (Sigma St Louis Mo. USA). The reaction was allowed to proceed until sharp contrast between positive and negative controls was observed. For negative controls primary antibody were eliminated. Leukemic mice spleen served as positive controls.
Mice were sacrificed after a decrease in LGI was observed and spleen harvested. […] Control mice also developed random subcutaneous tumors showing Crk expression, indicative of the presence of K562 cells.

The subject of series [8] is K562 luciferase expressing cells. The experiment in a line: Leukemic survival study in nude mice implanted with K562 luciferase expressing cells. The format is in vivo. The source says:
K562 luciferase expressing cells were implanted intraperitoneally into nude mice; the mice were scanned using the xenogeny IVIS image station after ip injections of luciferin does determine implantations. Drug treatment was started as in previous studies day 15 after implantation. The animals were given treatment till day 42, after which drug treatment was stopped and survival of the animals determined as per the animal care regulations. […] Drug treatment was withdrawn on day 42 post implantation and survival of animals determined.

The mark [9] stands for this setting: drug treatment withdrawn on day 42.

“Also recorded” adds a separate entry of the source. Where a name gives a salt, the structure may show the parent alone.

Turning to `Cc1ccc(NC(=O)c2cc(C(F)(F)F)cc(C(F)(F)F)c2)cc1Nc1nccc(-c2cccnc2)n1` [Form-I, (3,5-bis trifluoromethyl)-N-[4-methyl-3-(4-pyridin-3yl-pyrimidin-2ylamino)-phenyl]-benzamide], the “Stability of crystal form” value in series [1] was “metastable”.

Regarding `Cc1ccc(NC(=O)c2cc(C(F)(F)F)cc(C(F)(F)F)c2)cc1Nc1nccc(-c2cccnc2)n1` [Form-III, (3,5-bis trifluoromethyl)-N-[4-methyl-3-(4-pyridin-3yl-pyrimidin-2ylamino)-phenyl]-benzamide], the “Polymorph form detected after heating” value in [2] (110° C.), in series [2] (120° C.) and in series [2] (130° C.) was “Form-III” throughout. In series [2] (heated at 130° C. for 6 hours), the Heat stability entry was “non-metastable and stable; also recorded: stable to heat”. Moreover, the “Polymorph content of bulk compound of formula I, polymorph form detected” value in series [3] (0 Month at 40 ± 2° C./75 ± 5% RH), in [3] (1 Month at 40 ± 2° C./75 ± 5% RH), in [3] (2 Months at 40 ± 2° C./75 ± 5% RH), in [3] (3 Months at 40 ± 2° C./75 ± 5% RH) and in [3] (6 Months at 40 ± 2° C./75 ± 5% RH) was “Form-III” in each case. Also, the “Stability of crystal form” value in series [1] is recorded as “thermodynamically stable”.

As for `Cn1nnc2c(C(N)=O)ncn2c1=O` [Temozolomide], the “±Change in invasion after radiation” value with ZR71 breast cancer cells (ZR-71) is given as −5%; with U87 glioma cells (U87) it was “+3%”; in series [4] (MDA-MB-231) it was −13%; in the series on 5310 glioma cells (5310) it was “+13%”; with 4910 glioma cells (4910), −22%. Also, the “+Radiation % Invasion” value came to 65% in the series with ZR71 breast cancer cells (ZR-71, with radiation, 48 h treatment); 93% with U87 glioma cells (U87, with radiation, 48 h treatment); 49% in series [4] (MDA-MB-231, with radiation, 48 h treatment); 63% in the series on 5310 glioma cells (5310, with radiation, 48 h treatment); 73% with 4910 glioma cells (4910, with radiation, 48 h treatment). Moreover, the “−Radiation % Invasion” value in the series on ZR71 breast cancer cells (ZR-71, without radiation, 48 h treatment) was determined as 70%; in the series on U87 glioma cells (U87, without radiation, 48 h treatment), 90%; in series [4] (MDA-MB-231, without radiation, 48 h treatment) it was 62%; in the series with 5310 glioma cells (5310, without radiation, 48 h treatment), 50%; in the series with 4910 glioma cells (4910, without radiation, 48 h treatment), 95%. Moreover, in series [5], the “Animals cured / complete absence of intracranial tumours” value amounted to 3 animals.

Regarding `Cc1ccc(NC(=O)c2cc(C(F)(F)F)cc(C(F)(F)F)c2)cc1Nc1nccc(-c2cccnc2)n1` [Form-II, (3,5-bis trifluoromethyl)-N-[4-methyl-3-(4-pyridin-3yl-pyrimidin-2ylamino)-phenyl]-benzamide], in [1], the “Stability of crystal form” value is “metastable”.

On to `Cc1ccc(NC(=O)c2ccc(CN3CCN(C)CC3)cc2)cc1Nc1nccc(-c2cccnc2)n1` [Imatinib, Imatinib mesylate, reference compound], for which the “Physiological, phenotypic or behavioral abnormality” value with K562 cells [6] is “no abnormal physiological, phenotypic or behavioral abnormality”. In the series with K562 cells [7], the “Crk expression in spleen (immunohistochemistry)” value is recorded as “few colonies with low to undetectable expression levels of Crk; also recorded: localized expression regions of Crk expression” and the “Spleenic enlargement (gross observation)” value is given as “slight spleenic enlargement”. Also, in series [8] (setting [9]), the “Blast cell count from blood smears, effectiveness after withdrawal of drug treatment” value is “ineffective” and the “Leukemic symptoms after treatment withdrawal” value is “reoccurrences of leukemic symptoms”. Also, in [8] (treatment day 15 to day 42, then withdrawn, 10 animals), the Mortality entry is “mortality on day 55, 56, 57 and 58”.
